Test results from US12637464B2, “Tetracyclic compounds for treating brain disorders” (The Regents of the University of California, priority 2021, dated 2026).

Assays:
[1] = system: PSYLI2 cells; experiment: PsychLight assays (agonist and antagonist mode); format: cell-based; conditions: FIG. 3C-3E; agonist mode concentration-response, antagonist mode 1 μM
Experimental: PsychLight Assays. Psychlight assays were performed using a previously published method. Briefly, glass bottom 96-well plates were coated with 50 μg/mL of poly-D-lysine overnight at room temperature and then washed with Dulbecco's PBS. PSYLI2 cells were suspended in DMEM containing 10% FBS with 5% penicillin-streptomycin, plated at a density of 40,000 cells/well, and incubated (37° C., 5% CO2) for 24 h prior to each experiment. Immediately before an experiment, stock solutions of drugs in DMSO were diluted 1:100 in imaging media distributed across an empty 96-well plate (treatment plate) following a randomized plate map. The imaging media consisted of 1×HBSS containing […] and […]. […] Data were from 2 plates with 2-3 wells being analyzed per plate. […]
Once imaging was complete, the images were exported, and analyzed using a custom Python script. […] The mask was generated by calculating the average fluorescence intensity for the entire image and using that value as a threshold. […] The % ΔF/F values for each well were calculated using the following equation: […]
Once imaging was complete, the images were exported, and analyzed using a custom Python script. […] The mask was generated by calculating the average fluorescence intensity for the entire image and using that value as a threshold. […]

[2] = system: Sprague Dawley rats; experiment: Rat forced swim test (FST); format: in vivo; conditions: FST 24 h after compound administration; ketamine as comparator
Experimental: Rat Forced Swim Test (FST). This study was performed by Psychogenics (Paramus, NJ). Male Sprague Dawley rats were purchased from Envigo (Indianapolis, IN), and upon receipt, they were assigned unique identification numbers (tail marked) and group housed in ventilated cages with 3 rats per cage. All animals remained housed in groups of three for the remainder of the study. All rats were acclimated to the colony room for up to one week prior to dosing. During the period of acclimation, rats were examined and handled daily, and weighed to assure adequate health and suitability. The room temperature was maintained between 20° C. and 23° C. with a relative humidity of 30%-70%. Lab Rodent Diet 5001 (W.F. Fisher, Cat #11015) and water were provided ad libitum. […] All animals were carefully monitored to ensure their safety in the swim test and any animal unable to maintain a posture with its nose above water was immediately removed from the water and not used further in the study. […] This test lasted for 5 min and was video recorded. A blinded experimenter manually scored the videos for swimming, climbing, and immobility behavior. Scoring of the forced swim test was performed by trained technicians using a time sampling technique in which the animal in the video recorded test was viewed every 5 seconds and the behavior observed was noted (e.g., immobile, swimming, or climbing). […]

[3] = system: serotonin receptors; experiment: Radioligand binding selectivity panel (Eurofins Discovery); conditions: FIG. 3A; binding profile compared to (+)-LSD

CCN(CC)C(=O)[C@@H]1C=C2c3cccc4ccn(c34)C[C@H]2N(C)C1 [(+)-JRT]
hallucinogenic potential (psychLight) [1]: low hallucinogenic potential
antidepressant-like effects in rat FST [2]: antidepressant-like effects comparable to ketamine at substantially lower doses
receptor selectivity (binding profile) [3]: highly selective for serotonin receptors
